Measured values from patent US12060408B2, “Screening assays, modulators and modulation of activation of Receptor for Advanced Glycation End-products (RAGE)” (Monash University, priority 2017, dated 2024).

Assays:
[1] = test system: RAGE ligand-dependent activation of RAGE; experiment: S100A8/A9-induced NFκB activation (p65 gene expression) in CHO cells expressing RAGE constructs; format: cell-based, human
IQGAP-1 = biological target: T1, IQGAP-1 (Cricetulus griseus, UniProt A0A8C2MPD4); experiment: Pull down from cytosolic components on a column coated with S391A-RAGE362-404; format: binding; conditions: column coated with the peptide
T1 construct: 5×10^7 CHO cells stably transfected with Hs-AT1R were lysed using RIPA buffer; endogenous in cells; host or cells: lysate of CHO cells stably transfected with Hs-AT1R
Text: FIG. 11C. Pull down of a protein identified as IQGAP-1 from other cytosolic components using a column coated with the mutant RAGE cytosolic tail (S391A-RAGE362-404), as well as IQGAP-1 associated proteins, ezrin/radixin/moesin and the GPCR olfactory receptor 2T2.

[2] = Circulating concentration of RAGE ligands (S100A8/A9, AGEs, methylglyoxal); format: in vivo, mouse; conditions: four-week infusion 1 μg/kg/min
Experimental: Circulating Concentration of RAGE Ligands
Changes in circulating levels of RAGE ligands were assessed in animal models. S100A8/A9 levels were estimated by ELISA (Immundiagnostik, Germany) performed according to the manufacturer's instructions. Plasma AGEs were measured by in-house ELISA. Plasma methylglyoxal, a reactive precursor of AGEs, was measured by HPLC.

[3] = Systolic BP measurement by tail-cuff plethysmography; format: in vivo, mouse; conditions: four-week infusion 1 μg/kg/min, both apoE KO and AGER/apoE DKO mice
Experimental: Systolic blood pressure was measured by tail-cuff plethysmography in conscious, pre-warmed mice using a computerized, non-invasive, tail-cuff system (Kent Scientific, USA). Animals were habituated to the device before measuring the pressures to ensure accurate measurements.

PMAEC = experiment: Generation of superoxide and additional markers of oxidative stress (DCFH, Rac-1 G-LISA, oxidized glutathione) in PMAEC; format: cell-based, mouse
Experimental: Generation of Superoxide and Additional Markers of Oxidative Stress
To quantitate superoxide production induced by Ang II, a vessel chamber assay was used to measure total cytoplasmic and mitochondrial superoxide production in real time in PMAEC from AGER KO and C57Bl6 aortae. PMAEC were grown on collagen coated cover slips and mounted into a sealed glass chamber when they were 80% confluent. The chambers were perfused with Krebs buffer for an hour with fluorescent readings taken every 10 minutes to establish baseline readings. The cells were then perfused with 1 μM Ang II for 60 minutes and fluorescent readings were taken every 1 minute for a further 10 minutes. Fluorescence readings were expressed as change (Δ) in fluorescence arbitrary units from baseline. Levels of the activated NADPH oxidase subunit, Rac-1 activation was also measured in cell lysates after exposure to Ang II using a Rac-1 G-LISA activation assay (Cytoskeleton), as per manufacturers' instructions. Additional markers of oxidative stress were also assayed including levels of oxidized glutathione, (Cayman Chemical Company, US), performed as per manufacturer's instructions.

AT1 = biological target: T2, AT1 (Homo sapiens, UniProt P30556); experiment: Classical GPCR signalling (IP-one HTRF, EGR1) in AT1R-CHO cells; format: cell-based; design: expressed in transfected cells; conditions: 1 μM
T2 sequence (P30556 1-359): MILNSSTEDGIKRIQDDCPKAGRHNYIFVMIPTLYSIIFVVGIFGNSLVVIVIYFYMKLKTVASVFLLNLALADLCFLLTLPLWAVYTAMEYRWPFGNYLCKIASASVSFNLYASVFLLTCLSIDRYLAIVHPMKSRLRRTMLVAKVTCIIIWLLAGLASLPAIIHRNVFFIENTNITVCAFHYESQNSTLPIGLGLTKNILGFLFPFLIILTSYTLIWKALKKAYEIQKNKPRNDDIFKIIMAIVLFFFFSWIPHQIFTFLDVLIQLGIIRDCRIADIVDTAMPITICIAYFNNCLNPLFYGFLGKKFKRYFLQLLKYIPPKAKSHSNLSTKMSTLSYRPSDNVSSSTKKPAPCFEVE
Experimental: Generation of Transgenic Chinese Hamster Ovary Cells
100 ng of AT1R-Rluc8 construct was transfected into CHO cells using Lipofectamine 2000 (Thermo). Stable transfectants were selected using G418. AT1R—CHO were then transiently transfected with RAGE constructs using Lipofectamine 2000 (Invitrogen) and incubated for 16 h.
Classical GPCR Signalling

T1 sequence (A0A8C2MPD4 1-1657): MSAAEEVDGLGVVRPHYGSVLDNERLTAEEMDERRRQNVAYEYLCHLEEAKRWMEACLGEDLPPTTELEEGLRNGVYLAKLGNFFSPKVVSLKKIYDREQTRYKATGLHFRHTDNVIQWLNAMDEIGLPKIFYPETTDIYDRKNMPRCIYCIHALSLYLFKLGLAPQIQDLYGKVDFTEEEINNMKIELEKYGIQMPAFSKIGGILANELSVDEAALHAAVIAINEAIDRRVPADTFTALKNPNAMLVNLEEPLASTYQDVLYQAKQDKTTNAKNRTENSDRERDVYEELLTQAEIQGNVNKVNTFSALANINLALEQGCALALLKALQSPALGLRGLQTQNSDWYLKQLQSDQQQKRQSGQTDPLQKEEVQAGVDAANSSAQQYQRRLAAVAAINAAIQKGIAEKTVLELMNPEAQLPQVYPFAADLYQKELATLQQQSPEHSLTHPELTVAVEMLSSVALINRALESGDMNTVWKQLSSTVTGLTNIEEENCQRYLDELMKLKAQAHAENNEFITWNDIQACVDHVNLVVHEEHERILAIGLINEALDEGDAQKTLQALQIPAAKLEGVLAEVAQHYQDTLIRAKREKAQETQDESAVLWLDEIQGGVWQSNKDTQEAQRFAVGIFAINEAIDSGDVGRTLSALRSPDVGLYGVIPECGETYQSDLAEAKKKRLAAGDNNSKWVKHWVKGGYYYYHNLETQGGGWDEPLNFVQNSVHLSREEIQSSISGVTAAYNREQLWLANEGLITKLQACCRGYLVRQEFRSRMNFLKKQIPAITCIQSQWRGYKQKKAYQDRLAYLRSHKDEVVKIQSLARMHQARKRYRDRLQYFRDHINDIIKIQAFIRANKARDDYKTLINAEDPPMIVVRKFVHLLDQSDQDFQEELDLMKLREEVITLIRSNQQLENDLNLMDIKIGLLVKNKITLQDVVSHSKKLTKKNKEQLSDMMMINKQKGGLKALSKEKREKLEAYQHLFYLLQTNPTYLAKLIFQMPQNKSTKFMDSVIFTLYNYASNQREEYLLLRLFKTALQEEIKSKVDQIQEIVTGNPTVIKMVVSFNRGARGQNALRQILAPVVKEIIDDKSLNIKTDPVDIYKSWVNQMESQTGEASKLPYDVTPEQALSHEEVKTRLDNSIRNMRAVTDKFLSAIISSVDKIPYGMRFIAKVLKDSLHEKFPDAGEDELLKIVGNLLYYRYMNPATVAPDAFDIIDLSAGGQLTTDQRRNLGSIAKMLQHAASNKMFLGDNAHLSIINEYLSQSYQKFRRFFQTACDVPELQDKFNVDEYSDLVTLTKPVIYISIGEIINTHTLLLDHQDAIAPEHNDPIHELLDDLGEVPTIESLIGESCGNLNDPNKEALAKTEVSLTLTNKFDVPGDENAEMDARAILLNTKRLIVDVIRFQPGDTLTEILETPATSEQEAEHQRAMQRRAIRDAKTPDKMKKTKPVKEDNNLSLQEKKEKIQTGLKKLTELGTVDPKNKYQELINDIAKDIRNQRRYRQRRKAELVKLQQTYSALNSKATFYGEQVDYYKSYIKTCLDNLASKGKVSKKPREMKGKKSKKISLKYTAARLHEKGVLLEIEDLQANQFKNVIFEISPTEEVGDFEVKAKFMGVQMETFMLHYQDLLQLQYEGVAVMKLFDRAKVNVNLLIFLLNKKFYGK

Question: With “L362WQRRQRRGEERKAPENQEEEEERAELNQAEEPEAGESSTGGP404 (LWQRRQRRGEERKAPENQEEEEERAELNQAEEPEAGESSTGGP; listed as Homo sapiens) [S391A-RAGE362-404, S391A mutant RAGE cytosolic tail; non-functional substitute for RAGE]” as the substance, how does the “inhibition of S100A8/A9-induced p65 expression” value ([1]; AT1R-CHO cells also expressing full length RAGE) read?
Answer: The value was “inhibitory effect”.

Question: And the “inhibition of RAGE ligand-dependent activation of wild-type RAGE (S100A8/A9)” value ([1]; summary statement, cell system not given)?
Answer: The value was “inhibits”.

Question: What about the “pull down of IQGAP-1 (and ezrin/radixin/moesin, olfactory receptor 2T2) from cytosolic components” value (IQGAP-1) of the same substance?
Answer: The value was “Pull down”.

Question: Which “circulating levels of RAGE ligands” value ([2]; AGER/apoE DKO mice) does the source give for “angiotensin II (DRVYIHPF) [Ang II, cognate ligand of AT1R]” here?
Answer: The value was “preventing”.

Question: What about the “circulating levels of RAGE ligands (S100A8/A9, AGEs, dicarbonyl precursors)” value ([2]; apoE KO mice) of the same substance?
Answer: Its value is “increases”.

Question: And the systolic blood pressure [3]?
Answer: The systolic blood pressure was “increased to a similar extent”.

Question: And the “ROS production and oxidative stress” value (PMAEC; PMAEC from AGER KO mice)?
Answer: Its value is “does not lead to”.

Question: What about the “production of ROS and other markers of oxidative stress (activated rac-1, oxidised glutathione)” value (PMAEC; PMAEC from C57bl6 mice, 1 μM) of the same substance?
Answer: Its value is “rapid increase”.

Question: And the “classical responsiveness: inositol phosphate synthesis and EGR1 induction” value (AT1)?
Answer: Its value is “induction”.
